Several values for one entry are separate records, joined by “and”; a condition that tells them apart may be missing. Equal values may be shown once. Toxic doses and inconclusive results are not listed. No stated cut-off is given here; in the data, active means T/C of 150% or more; inactive means T/C below 125%. Numbered stars: 1 amine (or outer) side, 2 acyl side, 3 side chain; on linkers, the order of the positions; unused ones are H or OH. Bridge positions count the residues as written; N and C are the ends. Square brackets hold non-standard residues; d marks the D form. Peptide text beside a SMILES is read from it. I, II: the chains in the order shown. Actinocin(1to9) = Cc1c2oc3c(C)ccc(C(=O)[*:2])c3nc-2c(C(=O)[*:1])c(N)c1=O; X2 = CC(=O)OC1CC(C)N([*:1])C1C(=O)[*:2]; X1 = CC1CC(=O)C(C(=O)[*:2])N1[*:1]; NMeV = CN[CH](C(=O)O)C(C)C; NMeA = CN[CH](C)C(=O)O; Sar = CNCC(=O)O
Test system: L1210 leukemia ip in BDF1 mice, survival T/C
Test: NCI In Vivo Anticancer Drug Screen. Data for tumor model L1210 Leukemia (intraperitoneal) in B6D2F1 (BDF1) mice
Settings: endpoint: mean survival time, higher = longer survival
How it was run: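 Antitumor effect is assessed in tumor-bearing animals. Survival in the compound arm is compared with a vehicle-dosed control arm and expressed as their quotient.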

[1] = dose: 100.0 mg/kg/injection, schedule: Q04DX003 (ip), vehicle: Klucel (hydroxypropylcellulose) (HPC)
[2] = dose: 200.0 mg/kg/injection, schedule: Q04DX003 (ip), vehicle: Klucel (hydroxypropylcellulose) (HPC)
[3] = dose: 400.0 mg/kg/injection, schedule: Q04DX003 (ip), vehicle: Klucel (hydroxypropylcellulose) (HPC)
[4] = dose: 100.0 mg/kg/injection, schedule: Q04DX003 (ip), vehicle: saline with Tween-80
[5] = dose: 200.0 mg/kg/injection, schedule: Q04DX003 (ip), vehicle: saline with Tween-80
[6] = dose: 400.0 mg/kg/injection, schedule: Q04DX003 (ip), vehicle: saline with Tween-80
[7] = dose: 100.0 mg/kg/injection, schedule: Q01DX009 (ip), vehicle: saline with Tween-80
[8] = dose: 200.0 mg/kg/injection, schedule: Q01DX009 (ip), vehicle: saline with Tween-80
[9] = dose: 100.0 mg/kg/injection, schedule: Q01DX001 (ip), vehicle: saline
[10] = dose: 100.0 mg/kg/injection, schedule: Q04DX002 (ip), vehicle: saline with Tween-80
[11] = dose: 200.0 mg/kg/injection, schedule: Q04DX002 (ip), vehicle: saline with Tween-80
[12] = dose: 400.0 mg/kg/injection, schedule: Q04DX002 (ip), vehicle: saline with Tween-80

Measured: T/C

CC(=O)OC1CC(C)N2C(=O)C(C(C)C)NC(=O)C(NC(=O)c3ccc(C)c4oc5c(C)c(=O)c(N)c(C(=O)NC6C(=O)NC(C(C)C)C(=O)N7C(C)CC(=O)C7C(=O)N(C)CC(=O)N(C)C(C)C(=O)OC6C)c-5nc34)C(C)OC(=O)C(C(C)C)N(C)C(=O)CN(C)C(=O)C12 (stereo unspecified) (I: TV[X1][Sar][NMeA] / II: TV[X2][Sar][NMeV]; ester I:1-I:C, II:1-II:C; linker I:N-II:N via Actinocin(1to9); configuration not given here)
inactive: dose: 0.1 mg/kg/injection, schedule: Q01DX009 (ip), vehicle: saline + alcohol 101 % of control | dose: 0.2 mg/kg/injection, schedule: Q01DX009 (ip), vehicle: saline + alcohol 105 % of control | dose: 0.3 mg/kg/injection, schedule: Q04DX003 (ip), vehicle: saline + alcohol 97 % of control | dose: 0.4 mg/kg/injection, schedule: Q01DX009 (ip), vehicle: saline + alcohol 110 % of control | dose: 0.6 mg/kg/injection, schedule: Q04DX003 (ip), vehicle: saline + alcohol 108 % of control | dose: 0.8 mg/kg/injection, schedule: Q01DX001 (ip), vehicle: saline + alcohol 97 % of control | dose: 0.8 mg/kg/injection, schedule: Q01DX009 (ip), vehicle: saline + alcohol 116 % of control | dose: 1.2 mg/kg/injection, schedule: Q04DX003 (ip), vehicle: saline + alcohol 110 % of control | dose: 1.6 mg/kg/injection, schedule: Q01DX001 (ip), vehicle: saline + alcohol 102 % of control | dose: 1.6 mg/kg/injection, schedule: Q01DX009 (ip), vehicle: saline + alcohol 122 % of control | dose: 2.4 mg/kg/injection, schedule: Q04DX003 (ip), vehicle: saline + alcohol 112 % of control | dose: 3.2 mg/kg/injection, schedule: Q01DX001 (ip), vehicle: saline + alcohol 106 % of control | dose: 4.8 mg/kg/injection, schedule: Q04DX003 (ip), vehicle: saline + alcohol 121 % of control | dose: 6.4 mg/kg/injection, schedule: Q01DX001 (ip), vehicle: saline + alcohol 122 % of control

COC(=O)c1ccccc1C(=O)OCC(C)(C)[N+](=O)[O-]
inactive: [1] 100 % of control | [2] 97 % of control | [3] 107 % of control

CCOC(=O)C(c1ccccc1)C(NC(C)=O)(C(=O)OCC)C(=O)OCC (stereo unspecified)
inactive: dose: 100.0 mg/kg/injection, schedule: Q04DX002 (ip), vehicle: Klucel (hydroxypropylcellulose) (HPC) 114 % of control | dose: 200.0 mg/kg/injection, schedule: Q04DX002 (ip), vehicle: Klucel (hydroxypropylcellulose) (HPC) 104 % of control | dose: 400.0 mg/kg/injection, schedule: Q04DX002 (ip), vehicle: Klucel (hydroxypropylcellulose) (HPC) 93 % of control

Cc1cc(C)c2ccc(N)nc2n1
inactive: dose: 9.5 mg/kg/injection, schedule: Q01DX001 (ip), vehicle: saline 86 % of control | dose: 19.0 mg/kg/injection, schedule: Q01DX001 (ip), vehicle: saline 91 % of control | dose: 38.0 mg/kg/injection, schedule: Q01DX001 (ip), vehicle: saline 101 % of control

COc1ccc(C(c2ccccc2)C(CO)CO)cc1 (stereo unspecified)
inactive: dose: 75.0 mg/kg/injection, schedule: Q04DX002 (ip), vehicle: Klucel (hydroxypropylcellulose) (HPC) 90 % of control | dose: 150.0 mg/kg/injection, schedule: Q04DX002 (ip), vehicle: Klucel (hydroxypropylcellulose) (HPC) 93 % of control | dose: 300.0 mg/kg/injection, schedule: Q04DX002 (ip), vehicle: Klucel (hydroxypropylcellulose) (HPC) 87 % of control

COC(=O)C(Cl)C(Cl)c1ccccc1 (stereo unspecified)
inactive: [4] 97 % of control | [5] 97 % of control | [6] 94 % of control

Oc1ccccc1/C=N/n1cnnc1
inactive: [1] 98 % of control | [2] 100 % of control | [3] 100 % of control

CCC(C(=O)O)N(C)Cc1ccccc1 (stereo unspecified)
inactive: [7] 92 % of control | [8] 89 % of control | dose: 400.0 mg/kg/injection, schedule: Q01DX009 (ip), vehicle: saline with Tween-80 89 % of control

C[N+]1(C)CCOC(O)(c2ccccc2)C1 (stereo unspecified)
inactive: dose: 25.0 mg/kg/injection, schedule: Q01DX001 (ip), vehicle: saline 88 % of control | dose: 50.0 mg/kg/injection, schedule: Q01DX001 (ip), vehicle: saline 98 % of control | [9] 95 % of control and 101 % of control

CCc1ccc(C(O)C(=O)O)cc1 (stereo unspecified)
inactive: dose: 75.0 mg/kg/injection, schedule: Q01DX001 (ip), vehicle: acetone 90 % of control | dose: 150.0 mg/kg/injection, schedule: Q01DX001 (ip), vehicle: acetone 94 % of control

N=C(N)SCc1ccccc1Cl
inactive: dose: 3.13 mg/kg/injection, schedule: Q01DX009 (ip), vehicle: saline 96 % of control | dose: 3.13 mg/kg/injection, schedule: Q04DX002 (ip), vehicle: saline 102 % of control | dose: 6.25 mg/kg/injection, schedule: Q01DX009 (ip), vehicle: saline 98 % of control | dose: 6.25 mg/kg/injection, schedule: Q04DX002 (ip), vehicle: saline 102 % of control | dose: 12.5 mg/kg/injection, schedule: Q01DX009 (ip), vehicle: saline 96 % of control | dose: 12.5 mg/kg/injection, schedule: Q04DX002 (ip), vehicle: saline 91 % of control | dose: 25.0 mg/kg/injection, schedule: Q01DX009 (ip), vehicle: saline 96 % of control | dose: 25.0 mg/kg/injection, schedule: Q04DX002 (ip), vehicle: saline 97 % of control and 98 % of control | dose: 50.0 mg/kg/injection, schedule: Q04DX002 (ip), vehicle: saline 94 % of control

CCCCCCCCCCNC(C1=C(O)c2ccccc2C(=O)C1=O)c1ccccc1 (stereo unspecified)
inactive: dose: 25.0 mg/kg/injection, schedule: Q01DX001 (ip), vehicle: saline with Tween-80 89 % of control | dose: 100.0 mg/kg/injection, schedule: Q01DX001 (ip), vehicle: saline with Tween-80 89 % of control | dose: 400.0 mg/kg/injection, schedule: Q01DX001 (ip), vehicle: saline with Tween-80 86 % of control

CC1CC(C)NC(=O)N1 (stereo unspecified)
inactive: dose: 50.0 mg/kg/injection, schedule: Q04DX002 (ip), vehicle: saline with Tween-80 98 % of control | [10] 94 % of control | [11] 91 % of control | [12] 98 % of control

CC(=O)c1ccccc1C
inactive: [9] 104 % of control | dose: 200.0 mg/kg/injection, schedule: Q01DX001 (ip), vehicle: saline 112 % of control

CC[N+](C)(CC)CC1CC(C)OC1=O (stereo unspecified)
inactive: dose: 50.0 mg/kg/injection, schedule: Q01DX009 (ip), vehicle: saline 95 % of control | dose: 100.0 mg/kg/injection, schedule: Q01DX009 (ip), vehicle: saline 109 % of control | dose: 200.0 mg/kg/injection, schedule: Q01DX009 (ip), vehicle: saline 98 % of control

CCOC(=O)Nc1cc(Nc2ccc(Cl)cc2)c2ncc(C)nc2n1
inactive: dose: 25.0 mg/kg/injection, schedule: Q04DX003 (ip), vehicle: Klucel (hydroxypropylcellulose) (HPC) 102 % of control | dose: 50.0 mg/kg/injection, schedule: Q04DX003 (ip), vehicle: Klucel (hydroxypropylcellulose) (HPC) 102 % of control | [1] 96 % of control

COc1ccc(CCBr)cc1
inactive: dose: 100.0 mg/kg/injection, schedule: Q01DX009 (ip), vehicle: Klucel (hydroxypropylcellulose) (HPC) 97 % of control | dose: 200.0 mg/kg/injection, schedule: Q01DX009 (ip), vehicle: Klucel (hydroxypropylcellulose) (HPC) 97 % of control | dose: 400.0 mg/kg/injection, schedule: Q01DX009 (ip), vehicle: Klucel (hydroxypropylcellulose) (HPC) 95 % of control

COc1cc(-c2nc(/C=C3\C(=O)C=Cc4ccccc43)c(O)o2)cc(OC)c1OC
inactive: [10] 93 % of control | [11] 86 % of control | [12] 93 % of control

COc1ccc(NC(=S)Nc2ccccc2S)cc1
inactive: [7] 90 % of control | [10] 97 % of control | [8] 97 % of control | [11] 97 % of control | [12] 97 % of control

CNC(=O)Oc1cccc(NC(=O)OC(C)(C)C)c1
inactive: [4] 101 % of control | [5] 94 % of control | [6] 95 % of control

O=C(Cc1ccccc1[N+](=O)[O-])NCCc1ccc2c(c1)OCO2
inactive: dose: 100.0 mg/kg/injection, schedule: Q01DX001 (ip), vehicle: other 86 % of control | dose: 200.0 mg/kg/injection, schedule: Q01DX001 (ip), vehicle: other 89 % of control | dose: 400.0 mg/kg/injection, schedule: Q01DX001 (ip), vehicle: other 89 % of control
